These results are taken from patent US20200347043A1, “MODULATORS OF THE INTEGRATED STRESS PATHWAY” (Calico Life Sciences LLC, priority 2019, published 2020).

As a reminder, the EC50 is the concentration giving half of the maximal effect.

This assay relates to HEK293T cells carrying the ATF4 luciferase reporter. Nature of the assay: ATF4-Luc assay (in vitro model of VWMD). The note with it: Homo sapiens, HEK-293T, 1 μg/mL tunicamycin, 7 hours, One Glo luminescence. In kind it is cell-based, human. An outline of the steps: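 Tunicamycin (1 μg/mL) stress with co-added compound for 7 hours in HEK293T cells stably carrying an ATF4 5′-UTR–luciferase reporter. EC50 values come from the luminescent signal (One Glo).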

Where only a bound is given, the exact number is not on record here.

As for `O=C(COc1ccc(Cl)c(F)c1)N[C@@H]1CC[C@@H](c2nnc([C@H]3C[C@@H](OC(F)(F)F)C3)o2)OC1` [Compound 153, 2-(4-chloro-3-fluorophenoxy)-N-[(3R,6S)-6-{5-[(1s,3R)-3-(trifluoromethoxy)cyclobutyl]-1,3,4-oxadiazol-2-yl}oxan-3-yl]acetamide], the EC50 is under 10 nM.

As to `O=C(NC12CCC(C(=O)NCc3ccc(C(F)(F)F)cn3)(CC1)CC2)[C@H]1C[C@@H](O)c2cc(Cl)ccc2O1` [Compound 107, (2R,4R)-6-chloro-4-hydroxy-N-[4-({[5-(trifluoromethyl)pyridin-2-yl]methyl}carbamoyl)bicyclo[2.2.2]octan-1-yl]-3,4-dihydro-2H-1-benzopyran-2-carboxamide], the concentration giving a half-maximal response (EC50) was under 10 nM.

For the molecule `O=C(NC12CC(C(=O)NCc3ccc(C(F)(F)F)cn3)(C1)C2)[C@H]1C[C@@H](O)c2cc(Cl)ccc2O1` [Compound 119, (2R,4R)-6-chloro-4-hydroxy-N-[3-({[5-(trifluoromethyl)pyridin-2-yl]methyl}carbamoyl)bicyclo[1.1.1]pentan-1-yl]-3,4-dihydro-2H-1-benzopyran-2-carboxamide], the EC50 was 10 to 50 nM.

Consider `O=C(NC12CCC(C(=O)NCc3ccc(C(F)(F)F)cn3)(CC1)CC2)[C@@H]1C[C@@H](O)c2cc(Cl)ccc2O1` [Compound 193, (2S,4R)-6-chloro-4-hydroxy-N-[4-({[5-(trifluoromethyl)pyridin-2-yl]methyl}carbamoyl)bicyclo[2.2.2]octan-1-yl]-3,4-dihydro-2H-1-benzopyran-2-carboxamide], for which the concentration giving a half-maximal response (EC50) is 50 to 250 nM.

Regarding `O=C(NC12CC(n3cc(C4CCC4)cn3)(C1)C2)[C@H]1C[C@@H](O)c2cc(Cl)ccc2O1` [Compound 290, (2R,4R)-6-chloro-N-[3-(4-cyclobutyl-1H-pyrazol-1-yl)bicyclo[1.1.1]pentan-1-yl]-4-hydroxy-3,4-dihydro-2H-1-benzopyran-2-carboxamide], the EC50 was 50 to 250 nM.

Regarding `O=C(NC12CC(C(=O)NCc3nc4cc(F)c(F)cc4[nH]3)(C1)C2)[C@H]1C[C@@H](O)c2cc(Cl)ccc2O1` [Compound 127, (2R,4R)-6-chloro-N-(3-{[(5,6-difluoro-1H-benzimidazol-2-yl)methyl]carbamoyl}bicyclo[1.1.1]pentan-1-yl)-4-hydroxy-3,4-dihydro-2H-1-benzopyran-2-carboxamide], the EC50 was 10 to 50 nM.

As to `O=C(NC12CC(c3cc(-c4ccc(Cl)cc4)no3)(C1)C2)[C@@H]1C[C@@H](O)c2cc(Cl)ccc2O1` [Compound 247, (2S,4R)-6-chloro-N-{3-[3-(4-chlorophenyl)-1,2-oxazol-5-yl]bicyclo[1.1.1]pentan-1-yl}-4-hydroxy-3,4-dihydro-2H-1-benzopyran-2-carboxamide], the EC50 fell in the range of 50 to 250 nM.

Regarding `O=C1CC(C(=O)NC23CC(n4cnc(-c5ccc(F)c(F)c5)c4)(C2)C3)Oc2ccc(Cl)cc21` (centres unmarked) [Compound 148, 6-chloro-N-{3-[4-(3,4-difluorophenyl)-1H-imidazol-1-yl]bicyclo[1.1.1]pentan-1-yl}-4-oxo-3,4-dihydro-2H-1-benzopyran-2-carboxamide], the EC50 lay in the range of 10 to 50 nM.
